Measurements from patent US8263642B2, “Antimicrobial compounds and methods of use thereof” (Vanderbilt University, priority 2008, dated 2012).

Key:
[1] = tested on: HssRS-dependent hrtAB expression; assay: Luminescence-based assay to monitor HssRS-dependent hrtAB expression (phrtABlux reporter), Newman; format: cell-based, Staphylococcus aureus; conditions: Newman; for activation at 0.0825 µM: Staphylococcus aureus, NEWMAN, read-out: % Lumi, luminescence induced by the compound compared to the heme control (82.5 nM) in the same plate; for Luminescence: raw luminescence value obtained in a luminometer
Outline: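 S. aureus Newman wild type or ΔhssR carrying a hrtAB promoter–luxCDABE reporter (phrtABlux), grown in TSB with 10 μg/ml chloramphenicol at 37 °C. Light output read against 82.5 nM heme as the in-plate positive control. Activity given as % of heme-induced luminescence.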

response regulator HssR = assay: HssR dependence of XylE inducing activity, Newman; format: cell-based, Staphylococcus aureus; conditions: whether XylE inducing activity requires HssR
Method: With reference to Table 1, “Luminescence” refers to the raw luminescence value obtained in a luminomter. “Control (82.5 nm)” refers to the luminescence value obtained from heme at 82.5 nM as a positive control in the same plate as the experimental. “% lum” is the percentage of luminescence induced by the compound as compared to the heme control in the same plate. […] All of these assays are described in the application. […] “N/T” indicates the test was not performed. […]
S. aureus strains harboring the appropriate reporter construct were inoculated into 500 μl of TSB containing 10 μg/ml chloramphenicol in 1.5 ml tubes. Cultures were grown O/N at 37° C. with shaking. Bacteria were pelleted by centrifugation and spent medium was aspirated. The pellet was washed once with 500 μl of 20 mM potassium phosphate, pH 7.6, and resuspended in 150 μl of 100 mM potassium phosphate buffer, pH 8.0, 10% (v/v) acetone, 25 μg/ml lysostaphin. After 20 minute incubation at 37° C. and 5 minute incubation on ice, samples were centrifuged at 20,000 g for 30 minutes at 4° C. 1-10 μl of supernatant was added to a 96-well plate and 200 μl of 100 mM potassium phosphate, pH 8.0, 0.2 mM pyrocatechol was added to each well. Formation of 2-hydroxymuconic semialdehyde was tracked by measuring the absorbance at 375 nm every minute for 30 minutes on a Varian MP 50 microplate reader. Protein concentration in samples was determined by BCA (Pierce). One unit of specific activity of XylE in a sample is defined as the formation of 1 nmol of 2-hydroxymuconic semialdehyde per minute per milligram of cellular protein at 30° C. (Chien, Y., Manna, A. C., Projan, S. J., and Cheung, A. L. 1999, “SarA, a global regulator of virulence determinants in Staphylococcus aureus, binds to a conserved motif essential for sar-dependent gene regulation. J. Biol. Chem. 274, 37169-37176).

SMILES	activation at 0.0825 µM [1] [%]	Luminescence [1]	HssR Dep (response regulator HssR)
COc1ccc(-c2cc(-c3ccc(C)cc3)[nH]n2)c(O)c1	180	1122	+
COc1ccc(-c2cc(-c3ccc(OC)cc3O)n[nH]2)cc1	238	1482	+
COc1ccc(C(=O)Nc2sc(-c3ccccc3)cc2C(N)=O)cc1	244	1781	+
Fc1ccc(CNC(=S)Nc2ccc(Oc3ccccc3)cc2)cc1	362	1570	+
CC(C)(C)c1ccc(O)c(NC(=S)NC(=O)c2cc3ccccc3o2)c1	101	419	+
Oc1c(-c2cc(-c3ccco3)[nH]n2)ccc2ccccc12 [drawing 25]	–	2622	+
CC(NC(=O)C1(c2ccccc2)CCCC1)C1COc2ccccc2O1 (stereo not drawn) [drawing 26]	266	757	+
Cc1ccc(O)c(NC(=O)c2nn3c(c2Br)NC(c2ccco2)CC3C(F)(F)F)c1 (stereo not drawn) [drawing 29]	307	1949	+
Cc1cccc(C(=O)Nc2ccc(-c3nc4ccccc4o3)cc2)c1 [drawing 43]	–	837	+
CC(NC(=O)C1(c2ccccc2)CCCC1)C1COc2ccccc2O1 (stereo not drawn) [drawing 45]	–	757	+
O=C(N/N=C/c1ccc(-c2ccc(Br)cc2)o1)C1COc2ccccc2O1 (stereo not drawn) [drawing 48]	133	485	+
O=C(N/N=C/c1ccc(-c2cccc(C(F)(F)F)c2)o1)C1COc2ccccc2O1 (stereo not drawn) [drawing 49]	152	558	+
COc1ccc(Br)cc1C(=O)NC(=S)Nc1cc(C)c(C)cc1O [drawing 63]	–	946	+
Oc1c(-c2cc(-c3ccco3)[nH]n2)ccc2ccccc12 [drawing 65]	630	2622	+
CCCN1C(=O)/C(=C2/C(=O)N(CC(=O)Nc3ccc(Cl)cc3)c3ccccc32)SC1=S [drawing 67]	–	98	+
Cc1ccc(NS(=O)(=O)c2ccc3c(c2)Cc2cc(S(=O)(=O)Nc4ccc(C)cc4)ccc2-3)cc1 [drawing 74]	–	7328	+
COc1ccccc1NC1=C/C(=N\S(=O)(=O)c2ccc(Br)cc2)c2ccccc2C1=O [drawing 81]	510	2270	+
